Assay results as given in PubChem BioAssay AID179 (DTP/NCI, 2004).
Activity calls are given as the source filed them.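 How the source made its calls: active means compounds giving half or more protection of infected cells from virus-caused growth loss, again on retest; inactive means the rest.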 Where a SMILES comes first, the peptide text is derived from it. The star is where a group is joined. Boc = CC(C)(C)OC(=O)*; OBn = c1ccc(CO*)cc1

Test system: CEM cells HIV-1 protection, formazan growth assay
Experiment: NCI AIDS Antiviral Assay
Conditions: for IC50: measured here: growth of uninfected CEM cells
Procedure, shortened: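 Category rules: moderately active means at least 50% protection on retest, and confirmed active means 100% protection reproducibly. The underlying data came from a formazan growth assay in HIV-1-infected CEM cells.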

Structure (SMILES) | EC50 [µM] | IC50 [µM] | outcome
CCOP(=O)(OCC)/C(C#N)=C(\C)c1ccco1 | > 200 | > 200 | –
O=C(c1cccc(OCc2ccccc2)c1OCc1ccccc1)N1CCSC1=S | > 200 | 9.12 | –
Cc1cc(S(=O)(=O)Nc2nc(N)nc(N3CCCCC3)n2)c(S)cc1Cl | > 200 | > 200 | –
FC(F)(F)c1ccc2c(c1)N(CCCN1CCN(C3CC3)CC1)c1ccccc1S2 | > 200 | 33.1 | –
COc1cc2c(oc(=O)c3c4oc([Si](C)(C)C)cc4cc(OC)c23)c2cccc(O)c12 | > 1.74 | > 1.74 | –
Cc1cc(N=Nc2ccc(C(=O)O)cc2)c(N)c(N=Nc2ccc(N=Nc3ccc(O)c(C(=O)O)c3)cc2)c1N | 38 | 195 | –
COC(=O)[C@H]1COC(=O)N1 | > 200 | > 200 | –
Cc1cc(=O)oc(C)c1C(=O)O | > 200 | > 200 | –
Cc1cccc(C)c1NC(=O)C(=O)C(C#N)c1ccccc1Cl (stereo not given) | > 759 | > 759 | –
N#Cc1ccccc1NC(=O)C(=O)c1c(O)c2ccccc2oc1=O | > 741 | > 741 | –
O=C(O)C1C(c2ccccc2)C=CC(c2ccccc2)C1C(=O)O (stereo not given) | – | – | inactive
CCOC(=O)C(Cl)C1(O)Cc2cccc3cccc1c23 (stereo not given) | > 200 | 110 | –
CN(C)CC1(C)Cc2cc(Cl)sc2C1=O (stereo not given) | > 200 | > 200 | –
Cn1cc(NC(=O)Nc2cc(C(=O)Nc3ccc4cc(S(=O)(=O)O)cc(S(=O)(=O)O)c4c3)n(C)c2)cc1C(=O)Nc1ccc2cc(S(=O)(=O)O)cc(S(=O)(=O)O)c2c1 | 79.4 | > 200 | –
O=C1c2cc3ccccc3cc2C2(c3ccc(Cl)cc3)NCCN12 (stereo not given) | > 200 | 32.4 | –
O=[N+]([O-])c1ccc(Sc2c3ccccc3nc3ccccc23)cc1 | > 4.37 | > 4.37 | –
CCCC(O)c1ccc2[nH]c3c(C)cc([N+](=O)[O-])c(C)c3c2c1 (stereo not given) | > 4.68 | > 4.68 | –
CC1(C)Nc2cc3c(cc2-n2cccc21)oc1ccccc13 | > 200 | 9.12 | –
O=S(O)c1cc(Cl)cc(Cl)c1OCc1ccccc1 | – | – | inactive
O=C1NC2(CCCC2)C(=O)C12CCCC2 | – | – | inactive
C[Si](C)(C)/C=C\CCNCc1ccccc1 | > 776 | > 776 | –
CCOC(=O)[C@@]12C3C=CC(CC3)[C@]1(C(=O)c1ccccc1)C(=O)C(=O)N2c1ccccc1 (stereo not given in full) | > 200 | 110 | –

Structure (SMILES) | EC50 [µM] | IC50 [µM] | outcome
CC(CCC=C(c1cc(Cl)c(O)c(C(=O)O)c1)c1cc(Cl)c(O)c(C(=O)O)c1)C1CCC2[C@@H]3CC[C@@H]4CC(F)(F)CC[C@]4(C)C3CC[C@]12C (stereo not given in full) | > 170 | 38 | –
Cc1cc(-c2ccc[nH]2)on1 | > 200 | > 200 | –
Cc1cc(=O)oc2c(CNC(C)C(=O)O)c(O)ccc12 (stereo not given) | > 200 | 186 | –
CC(OCc1ccccc1)C(NC(=O)C1CSSCC(NC(=O)C(Cc2ccccc2)NC(=O)OCc2ccccc2)C(=O)NC(Cc2ccccc2)C(=O)NC(Cc2cn(C=O)c3ccccc23)C(=O)NC(CCCCNC(=O)OCc2ccccc2)C(=O)NC(C(C)OCc2ccccc2)C(=O)N1)C(N)=O (stereo not given) | > 100 | 4.47 | –
CN1CCCc2nc3ccccc3n2C1 | > 36.3 | > 36.3 | –
COC1/C=C/OC2(C)Oc3c(C)c(O)c4c(O)c(c(C=NN5CCCCCCCCCCCC5)c(O)c4c3C2=O)NC(=O)/C(C)=C/C=C/C(C)C(O)C(C)C(O)C(C)C(OC(C)=O)C1C (stereo not given) | – | – | inactive
CCN(CC)CCNc1ccc(CO)c2sc3ccccc3c(=O)c12 | – | 2690 | inactive
COc1ccc(NCn2nc(CCCCCCCCc3nn(CNc4ccc(OC)cc4)c(=S)o3)oc2=S)cc1 | > 200 | 158 | –
CC(NC(=O)CNC(=O)OC(C)(C)C)C(=O)NC(Cc1ccccc1)C(=O)OCc1ccccc1 (stereo not drawn) (Boc-Gly-Ala-Phe-OBn; configuration not given here) | > 200 | 77.6 | –
O=C(/C=C1/Nc2ccc([N+](=O)[O-])cc2NC1O)c1cccc([N+](=O)[O-])c1 (stereo not given) | > 20.4 | > 20.4 | –
O=C(CC(C(=O)c1ccsc1)c1cccs1)c1cccs1 (stereo not given) | > 21.9 | > 21.9 | –
CCOC(=O)c1cc(/C=C/C(C)=C/C(=O)OC)oc1-c1ccccc1 | – | – | inactive
O=C(O)CN=c1c2ccccc2n(O)c2ccccc12 | – | – | inactive
O=S(=O)(O)CC(S(=O)(=O)O)S(=O)(=O)O | > 200 | > 200 | –
COc1ccc2c(c1)c1c(n2CCN(C)C)-c2ccccc2CC1 | > 200 | 14.8 | –
O=C(NC1CCC(=O)N1C(=O)OCc1ccccc1)OCc1ccccc1 (stereo not given) | > 200 | > 200 | –
NNC(=O)c1nnc(NN)[nH]c1=O | > 200 | > 200 | –
CSC1C=C(C(C)C)CCC1(C)SC (stereo not given) | > 200 | 39.8 | –
COc1c2c(cc3oc(C)c(C)c(=O)c13)OC(C)(C)C=C2 | > 200 | 81.3 | –
COc1ccc(N=C2C(=Nc3ccc(OC)cc3)N(S(=O)(=O)c3ccccc3)C(=S)N2c2ccccc2)cc1 | > 200 | > 200 | –
CCOC(=O)/C=C1\CCCn2c1ncc(C(=O)OCC)c2=O | > 200 | 3.63 | –
O=S(=O)(c1ccccc1)N1CCC1c1ccccc1 (stereo not given) | – | – | inactive

Structure (SMILES) | EC50 [µM] | IC50 [µM] | outcome
Cc1ccccc1N=O | > 200 | 9.77 | –
COc1ccc2c(CCNS(=O)(=O)c3ccccc3)c(C(C)=O)[nH]c2c1[N+](=O)[O-] | – | – | inactive
CCOC(=O)c1c(-c2[nH]c(C(=O)OCc3ccccc3)c(C)c2C(=O)OCC)[nH]c(C(=O)OCc2ccccc2)c1C | – | – | inactive
CCOP(=S)(OCC)SC(C)(C)C | > 107 | > 107 | –
O=C1[O][Bi]23[O]C(=O)C([O]2)C1[O]3 | > 36.3 | > 36.3 | –
COC(=O)c1ccc2c(c1)CC1(C2)Cc2cc3c(cc2C1)CCC3 | > 200 | > 200 | –
CC(NC(=O)/C(C#N)=C/c1ccc2[nH]ccc2c1)c1ccccc1 (stereo not given) | > 42.7 | > 42.7 | –
O=c1[nH]nnc2ccccc12 | > 245 | > 245 | –
O=c1c2cc(S(=O)(=O)Nc3ccccc3Cl)ccc2ncn1NS(=O)(=O)c1ccc(Br)cc1 | – | – | inactive
CCc1ccccc1NC(=O)C1=C(C)NC(C)=C(C(=O)Nc2c(CC)cccc2CC)C1c1ccc2c(c1)OCO2 (stereo not given) | > 33.9 | > 33.9 | –
CSC(SC)=C(C(=O)c1ccc(Cl)cc1)n1c(=O)sc2cc(Br)ccc21 | > 200 | 12.3 | –
CC#CCCC1(C)CCCCN(C(=O)OC(C)C)C1OCC (stereo not given) | > 43.7 | > 43.7 | –
COc1cc2c(Cc3cc(OCc4ccccc4)ccc3N)nccc2c(OC)c1OC | – | – | inactive
CCc1c(Cc2cc(C)cc(C)c2)n(COCCSc2ccccc2)c(=O)[nH]c1=O | 0.49 | 15.5 | –
CN(C)C(=O)N1N[C@H](c2ccccc2)[C@@H]1c1ccccc1 | > 200 | 135 | –
COC(=O)CC1N=C(NC#N)N(CCc2c[nH]c3ccccc23)C1=O (stereo not given) | – | – | inactive
N#C/C(=C\c1cccc(N)c1)c1ccccc1 | > 200 | 57.5 | –
CCC12CN(C(=O)OC)C3C(Br)C1CCC(=O)C32 (stereo not given) | > 200 | 178 | –
CCN(CC)CCC(=O)c1ccc(Cl)c(Cl)c1 | > 5010 | > 5010 | –
NC(=O)NC(=O)C(Cc1ccc(Cl)cc1)c1ccccc1 (stereo not given) | > 85.1 | > 85.1 | –
O=C(N=C1[Se]C(=Nc2ccccc2)C(=Nc2ccccc2)N1c1ccccc1)c1ccc([N+](=O)[O-])cc1 | > 200 | > 200 | –
COC(=O)C(NC(=O)c1ccccc1)c1ccco1 (stereo not given) | > 955 | 479 | –

Structure (SMILES) | EC50 [µM] | IC50 [µM] | outcome
Cc1ccc(Nc2cc(=O)[nH]c(=S)[nH]2)cc1 | > 200 | > 200 | –
Cc1ccc(-c2nc3ccccc3c(=O)n2NCC2(O)OCC(O)C(O)C2O)cc1 (stereo not given) | – | – | inactive
O=c1[nH]c2ccccc2c(=O)n1CCCN1CCN(c2cccc(Cl)c2)CC1 | > 200 | 50.1 | –
CCN(CC)CCN(C(=Nc1ccccc1)N1CCCCC1)c1ccccc1 | > 200 | 1.29 | –
CO/N=C(\C)CCC#Cc1ccccc1C(=O)OC | > 200 | > 200 | –
Cn1c2c(c3ccccc31)CCN(CCCCN1CCCCC1)C2=O | > 372 | 58.9 | –
NC(CCC(=O)O)(C(=O)O)c1ccccc1 (stereo not given) | > 200 | > 200 | –
O=c1oc2ccccc2c(O)c1Cc1ccc(Cc2c(O)c3ccccc3oc2=O)cc1 | > 200 | 182 | –
Cc1ccc2nc3c(C)cc(=O)cc-3sc2c1 | > 77.6 | 50.1 | –
COC1/C=C\C=C(/C)C(=O)NC2=CC(=O)C(N)=C(CC(C)CC(OC)C(O)C(C)C=C(C)C1OC(N)=O)C2=O (stereo not given) | > 2 | 0.0661 | –
CCOC(CN(C)C(=O)Nc1ccc(Cl)c(Cl)c1)OCC | > 200 | 14.8 | –
Cc1cccc(Nc2nc3ccccc3nc2NS(=O)(=O)c2ccc(N)cc2)c1 | > 200 | 112 | –
Cc1ccc2nc(NC(=O)C(=O)C(C#N)c3ccc(Cl)cc3)sc2c1 (stereo not given) | > 49 | > 49 | –
C=CCOC1=C(OC(C)=O)C(=O)OC1C1COC(C)(C)O1 (stereo not given) | > 200 | 26.3 | –
C[N+]12CC3C(O)CC1CCC32 (stereo not given) | > 1320 | > 1320 | –
COC(=O)c1ccc(-n2c(C)nc(=O)c(-c3ccccc3)c2C)cc1 | > 100 | > 100 | –
Nc1nc(SCc2ccccn2)c2ncn(C3CCCC3)c2n1 | > 200 | 110 | –
CN(C)c1ccc2c(c1)C(=O)N(OS(=O)(=O)c1ccccc1)C2=O | – | – | inactive
OCC1CCCC1O (stereo not given) | – | – | inactive
CCOC(=O)C1=C(C)C(C(=O)OC)[C@]2(C)C(C(=O)OCC)=C(O)C(C(=O)OC)[C@]12C (stereo not given in full) | > 126 | > 126 | –
COc1ccc(N)c(CC2c3ccccc3CCN2C)c1 (stereo not given) | – | – | inactive
CC(C)CN(C[C@@H](O)[C@H](Cc1ccccc1)NC(=O)[C@H](CC(N)=O)NC(=O)c1ccc2ccccc2n1)C(=O)NC(C)(C)C | – | 93.3 | active
